Assay results from the kinase profiling compilation of Christmann-Franck et al. (2016).

Experiments:
Experiment in all cases: KINOMEscan competition binding
Settings in all cases: compound 10.0 µM
CAMK1G (human) = CAMK1G (human) (UniProt Q96NX5)
NEK9 (human) = NEK9 (human) (UniProt Q8TD19)
AURKB (human) = AURKB (human) (UniProt Q96GD4)
MAPK15 (human) = MAPK15 (human) (UniProt Q8TD08)
EPHA4 (human) = EPHA4 (human) (UniProt P54764)
PAK6 (human) = PAK6 (human) (UniProt Q9NQU5)
NEK6 (human) = NEK6 (human) (UniProt Q9HC98)
NUAK2 (human) = NUAK2 (human) (UniProt Q9H093)
NUAK2 (human), sequence (Q9H093 whole entry, looked up): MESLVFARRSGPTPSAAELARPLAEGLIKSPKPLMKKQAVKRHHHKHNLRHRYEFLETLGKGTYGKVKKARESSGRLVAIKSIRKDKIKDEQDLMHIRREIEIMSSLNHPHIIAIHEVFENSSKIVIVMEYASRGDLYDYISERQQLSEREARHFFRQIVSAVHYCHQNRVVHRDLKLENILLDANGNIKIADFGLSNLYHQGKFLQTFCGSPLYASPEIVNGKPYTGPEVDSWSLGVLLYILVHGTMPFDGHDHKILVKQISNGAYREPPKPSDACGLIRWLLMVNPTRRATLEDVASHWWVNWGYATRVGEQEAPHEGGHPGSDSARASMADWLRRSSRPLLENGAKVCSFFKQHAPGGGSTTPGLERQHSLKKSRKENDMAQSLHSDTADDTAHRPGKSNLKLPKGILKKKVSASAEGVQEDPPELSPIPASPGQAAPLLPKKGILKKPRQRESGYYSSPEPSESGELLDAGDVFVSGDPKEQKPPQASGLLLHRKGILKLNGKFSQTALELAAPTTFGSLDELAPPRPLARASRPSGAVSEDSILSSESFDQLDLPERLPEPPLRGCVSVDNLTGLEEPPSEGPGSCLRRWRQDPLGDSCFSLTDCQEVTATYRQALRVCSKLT

FES (human) = FES (human) (UniProt P07332)
DDR2 (human) = DDR2 (human) (UniProt Q16832)
ICK (human) = ICK (human) (UniProt Q9UPZ9)
PIK3CD (human) = PIK3CD (human) (UniProt O00329)
NTRK3 (human) = NTRK3 (human) (UniProt Q16288)
NTRK3 (human), sequence (Q16288 whole entry, looked up): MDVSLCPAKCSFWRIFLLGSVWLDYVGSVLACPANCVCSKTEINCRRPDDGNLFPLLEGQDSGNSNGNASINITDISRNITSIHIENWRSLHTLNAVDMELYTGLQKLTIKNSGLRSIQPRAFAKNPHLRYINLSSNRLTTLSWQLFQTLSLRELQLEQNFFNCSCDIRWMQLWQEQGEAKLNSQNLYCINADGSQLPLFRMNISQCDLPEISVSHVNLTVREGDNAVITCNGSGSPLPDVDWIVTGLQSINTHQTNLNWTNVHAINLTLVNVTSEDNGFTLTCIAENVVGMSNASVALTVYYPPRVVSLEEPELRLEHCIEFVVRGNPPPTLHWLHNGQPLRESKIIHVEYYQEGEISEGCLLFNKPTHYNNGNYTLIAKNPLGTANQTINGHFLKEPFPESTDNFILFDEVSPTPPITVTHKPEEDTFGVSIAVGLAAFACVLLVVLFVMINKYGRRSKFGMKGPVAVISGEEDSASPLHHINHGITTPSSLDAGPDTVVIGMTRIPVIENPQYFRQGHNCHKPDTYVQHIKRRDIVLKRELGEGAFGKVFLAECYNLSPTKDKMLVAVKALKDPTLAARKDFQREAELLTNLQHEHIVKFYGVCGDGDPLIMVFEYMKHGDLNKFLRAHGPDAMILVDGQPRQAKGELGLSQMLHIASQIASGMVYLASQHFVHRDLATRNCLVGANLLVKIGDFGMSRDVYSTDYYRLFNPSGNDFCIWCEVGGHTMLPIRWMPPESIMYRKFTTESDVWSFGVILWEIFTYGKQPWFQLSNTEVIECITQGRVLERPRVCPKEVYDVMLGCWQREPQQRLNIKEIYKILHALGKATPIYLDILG

ERN1 (human) = ERN1 (human) (UniProt O75460)
PAK1 (human) = PAK1 (human) (UniProt Q13153)
PAK1 (human), sequence (Q13153 whole entry, looked up): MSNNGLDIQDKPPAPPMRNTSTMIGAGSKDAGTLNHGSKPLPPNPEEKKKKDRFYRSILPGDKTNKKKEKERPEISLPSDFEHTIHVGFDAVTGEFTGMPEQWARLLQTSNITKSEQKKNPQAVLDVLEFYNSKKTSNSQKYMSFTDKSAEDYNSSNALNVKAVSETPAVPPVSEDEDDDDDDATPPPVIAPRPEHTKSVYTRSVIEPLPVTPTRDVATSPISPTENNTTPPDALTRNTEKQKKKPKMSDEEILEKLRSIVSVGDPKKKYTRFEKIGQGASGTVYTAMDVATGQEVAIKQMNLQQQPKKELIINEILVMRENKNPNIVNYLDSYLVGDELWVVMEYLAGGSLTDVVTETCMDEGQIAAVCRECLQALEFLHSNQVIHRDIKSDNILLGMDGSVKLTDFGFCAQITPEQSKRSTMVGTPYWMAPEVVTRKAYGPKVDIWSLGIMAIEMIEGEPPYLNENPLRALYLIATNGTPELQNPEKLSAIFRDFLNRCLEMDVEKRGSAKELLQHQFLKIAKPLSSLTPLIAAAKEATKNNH

RPS6KA1 KD1 (human) = RPS6KA1 KD1 (human) (UniProt Q15418)
MAP2K6 (human) = MAP2K6 (human) (UniProt P52564)
MARK2 (human) = MARK2 (human) (UniProt Q7KZI7)
MAP2K1 (human) = MAP2K1 (human) (UniProt Q02750)
CHUK (human) = CHUK (human) (UniProt O15111)
MAPK1 (human) = MAPK1 (human) (UniProt P28482)
FER (human) = FER (human) (UniProt P16591)
PRKX (human) = PRKX (human) (UniProt P51817)
STK3 (human) = STK3 (human) (UniProt Q13188)
SGK3 (human) = SGK3 (human) (UniProt Q96BR1)
SGK3 (human), sequence (Q96BR1 whole entry, looked up): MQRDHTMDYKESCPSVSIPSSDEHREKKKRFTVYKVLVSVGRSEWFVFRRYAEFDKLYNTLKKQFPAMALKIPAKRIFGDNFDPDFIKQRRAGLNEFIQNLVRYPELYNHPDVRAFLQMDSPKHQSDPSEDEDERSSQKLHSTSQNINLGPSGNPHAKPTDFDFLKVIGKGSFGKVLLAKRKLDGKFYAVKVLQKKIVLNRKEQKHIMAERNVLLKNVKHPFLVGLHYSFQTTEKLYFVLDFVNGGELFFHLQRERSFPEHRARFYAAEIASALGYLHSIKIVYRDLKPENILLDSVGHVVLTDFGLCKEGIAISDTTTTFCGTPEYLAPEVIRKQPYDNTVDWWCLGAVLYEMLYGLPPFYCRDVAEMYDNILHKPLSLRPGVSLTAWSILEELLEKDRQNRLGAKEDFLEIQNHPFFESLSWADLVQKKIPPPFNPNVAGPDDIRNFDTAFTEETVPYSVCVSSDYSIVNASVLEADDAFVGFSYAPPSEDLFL

MAP2K2 (human) = MAP2K2 (human) (UniProt P36507)
AKT2 (human) = AKT2 (human) (UniProt P31751)
TRPM6 (human) = TRPM6 (human) (UniProt Q9BX84)
BMPR1B (human) = BMPR1B (human) (UniProt O00238)
BMPR1B (human), sequence (O00238 whole entry, looked up): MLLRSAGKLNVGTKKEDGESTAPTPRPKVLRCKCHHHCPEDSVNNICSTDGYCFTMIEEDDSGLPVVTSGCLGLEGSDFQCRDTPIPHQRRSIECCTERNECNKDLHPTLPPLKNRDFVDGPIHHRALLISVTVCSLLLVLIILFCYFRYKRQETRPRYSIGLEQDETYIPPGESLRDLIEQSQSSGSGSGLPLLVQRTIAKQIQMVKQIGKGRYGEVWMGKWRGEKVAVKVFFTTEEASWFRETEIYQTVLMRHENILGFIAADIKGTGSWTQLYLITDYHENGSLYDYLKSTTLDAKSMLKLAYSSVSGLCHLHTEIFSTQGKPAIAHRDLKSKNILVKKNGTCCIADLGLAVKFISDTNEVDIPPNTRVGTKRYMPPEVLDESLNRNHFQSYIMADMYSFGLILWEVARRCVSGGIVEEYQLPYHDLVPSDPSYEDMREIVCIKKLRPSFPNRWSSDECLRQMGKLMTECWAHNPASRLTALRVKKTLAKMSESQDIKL

TNIK (human) = TNIK (human) (UniProt Q9UKE5)
DYRK1B (human) = DYRK1B (human) (UniProt Q9Y463)
[1] = system: FLT3 (human), P36888 [D835Y]
MAPK3 (human) = MAPK3 (human) (UniProt P27361)
CDC42BPA (human) = CDC42BPA (human) (UniProt Q5VT25)
TNK1 (human) = TNK1 (human) (UniProt Q13470)
CPK1 (P.falciparum) = system: CPK1 (P.falciparum)
LATS2 (human) = LATS2 (human) (UniProt Q9NRM7)
LIMK2 (human) = LIMK2 (human) (UniProt P53671)
ZAP70 (human) = ZAP70 (human) (UniProt P43403)
PRKAA1 (human) = PRKAA1 (human) (UniProt Q13131)
BLK (human) = BLK (human) (UniProt P51451)

EPHA4 (human), sequence (P54764 whole entry, looked up): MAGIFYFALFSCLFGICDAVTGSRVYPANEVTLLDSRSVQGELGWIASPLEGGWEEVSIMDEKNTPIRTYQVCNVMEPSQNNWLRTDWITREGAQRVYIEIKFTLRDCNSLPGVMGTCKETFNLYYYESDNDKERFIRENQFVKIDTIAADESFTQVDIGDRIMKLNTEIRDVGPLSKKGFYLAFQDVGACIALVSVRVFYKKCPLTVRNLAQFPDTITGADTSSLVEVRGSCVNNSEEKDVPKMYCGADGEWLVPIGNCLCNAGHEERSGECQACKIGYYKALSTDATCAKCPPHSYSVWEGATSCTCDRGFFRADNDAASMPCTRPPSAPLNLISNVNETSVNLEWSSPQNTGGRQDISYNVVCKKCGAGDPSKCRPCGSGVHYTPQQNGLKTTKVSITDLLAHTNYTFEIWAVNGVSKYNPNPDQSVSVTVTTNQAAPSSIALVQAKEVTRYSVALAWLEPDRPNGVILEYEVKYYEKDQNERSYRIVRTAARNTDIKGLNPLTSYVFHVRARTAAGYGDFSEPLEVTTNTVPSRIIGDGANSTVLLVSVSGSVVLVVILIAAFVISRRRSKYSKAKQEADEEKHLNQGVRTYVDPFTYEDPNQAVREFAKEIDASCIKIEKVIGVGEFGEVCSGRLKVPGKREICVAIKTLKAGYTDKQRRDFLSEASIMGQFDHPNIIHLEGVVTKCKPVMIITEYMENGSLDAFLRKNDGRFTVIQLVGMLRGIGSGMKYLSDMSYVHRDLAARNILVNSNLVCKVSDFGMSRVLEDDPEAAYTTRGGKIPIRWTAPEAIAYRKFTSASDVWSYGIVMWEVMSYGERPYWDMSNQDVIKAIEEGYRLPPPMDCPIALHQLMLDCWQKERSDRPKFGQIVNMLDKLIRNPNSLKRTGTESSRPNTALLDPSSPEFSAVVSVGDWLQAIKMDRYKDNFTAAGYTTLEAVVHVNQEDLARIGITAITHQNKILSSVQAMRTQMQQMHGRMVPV
NEK9 (human), sequence (Q8TD19 whole entry, looked up): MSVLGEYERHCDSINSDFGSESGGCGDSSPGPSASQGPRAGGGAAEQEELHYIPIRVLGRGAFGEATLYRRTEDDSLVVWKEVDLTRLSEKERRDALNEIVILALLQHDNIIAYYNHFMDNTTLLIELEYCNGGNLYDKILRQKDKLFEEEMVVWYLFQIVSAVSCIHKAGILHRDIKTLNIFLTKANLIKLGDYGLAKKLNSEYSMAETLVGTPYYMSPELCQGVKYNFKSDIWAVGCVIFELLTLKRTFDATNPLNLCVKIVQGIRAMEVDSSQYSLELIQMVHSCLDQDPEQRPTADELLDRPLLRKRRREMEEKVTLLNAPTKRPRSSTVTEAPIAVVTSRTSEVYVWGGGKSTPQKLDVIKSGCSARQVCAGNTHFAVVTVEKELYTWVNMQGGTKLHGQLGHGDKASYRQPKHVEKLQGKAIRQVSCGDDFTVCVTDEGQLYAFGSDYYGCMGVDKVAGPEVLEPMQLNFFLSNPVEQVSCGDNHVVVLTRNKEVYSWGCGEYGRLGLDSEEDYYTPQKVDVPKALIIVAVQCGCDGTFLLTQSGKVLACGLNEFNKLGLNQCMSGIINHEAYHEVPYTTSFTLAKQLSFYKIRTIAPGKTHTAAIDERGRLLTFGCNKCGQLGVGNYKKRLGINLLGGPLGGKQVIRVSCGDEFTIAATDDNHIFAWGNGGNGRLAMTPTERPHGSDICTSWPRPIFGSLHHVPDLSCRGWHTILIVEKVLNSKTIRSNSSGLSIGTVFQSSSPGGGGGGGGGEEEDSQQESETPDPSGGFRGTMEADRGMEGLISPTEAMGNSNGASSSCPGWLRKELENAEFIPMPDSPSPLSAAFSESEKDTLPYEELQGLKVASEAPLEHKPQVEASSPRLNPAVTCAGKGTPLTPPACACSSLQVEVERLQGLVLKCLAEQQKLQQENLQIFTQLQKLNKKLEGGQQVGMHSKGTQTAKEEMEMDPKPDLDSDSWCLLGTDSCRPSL

N#Cc1cc(-c2ccnc(Nc3ccc(-n4cnc(-c5cccnc5)n4)cc3)n2)cc(N2CCOCC2)c1
kinase still bound, per cent of control (CAMK1G (human)): 48% | kinase still bound, per cent of control (NEK9 (human)): 63% | kinase still bound, per cent of control (AURKB (human)): 57% | kinase still bound, per cent of control (MAPK15 (human)): 2% | kinase still bound, per cent of control (EPHA4 (human)): 79% | kinase still bound, per cent of control (PAK6 (human)): 58% | kinase still bound, per cent of control (NEK6 (human)): 76% | kinase still bound, per cent of control (NUAK2 (human)): 57% | kinase still bound, per cent of control (FES (human)): 91% | kinase still bound, per cent of control (DDR2 (human)): 100% | kinase still bound, per cent of control (ICK (human)): 2.6% | kinase still bound, per cent of control (PIK3CD (human)): 100% | kinase still bound, per cent of control (NTRK3 (human)): 100% | kinase still bound, per cent of control (ERN1 (human)): 54% | kinase still bound, per cent of control (PAK1 (human)): 65% | kinase still bound, per cent of control (RPS6KA1 KD1 (human)): 31% | kinase still bound, per cent of control (MAP2K6 (human)): 41% | kinase still bound, per cent of control (MARK2 (human)): 73% | kinase still bound, per cent of control (MAP2K1 (human)): 50% | kinase still bound, per cent of control (CHUK (human)): 55% | kinase still bound, per cent of control (MAPK1 (human)): 100% | kinase still bound, per cent of control (FER (human)): 99% | kinase still bound, per cent of control (PRKX (human)): 55% | kinase still bound, per cent of control (STK3 (human)): 100% | kinase still bound, per cent of control (SGK3 (human)): 100% | kinase still bound, per cent of control (MAP2K2 (human)): 62% | kinase still bound, per cent of control (AKT2 (human)): 100% | kinase still bound, per cent of control (TRPM6 (human)): 100% | kinase still bound, per cent of control (BMPR1B (human)): 28% | kinase still bound, per cent of control (TNIK (human)): 26% | kinase still bound, per cent of control (DYRK1B (human)): 10% | kinase still bound, per cent of control [1]: 14% | kinase still bound, per cent of control (MAPK3 (human)): 100% | kinase still bound, per cent of control (CDC42BPA (human)): 68% | kinase still bound, per cent of control (TNK1 (human)): 25% | kinase still bound, per cent of control (CPK1 (P.falciparum)): 48% | kinase still bound, per cent of control (LATS2 (human)): 62% | kinase still bound, per cent of control (LIMK2 (human)): 60% | kinase still bound, per cent of control (ZAP70 (human)): 70% | kinase still bound, per cent of control (PRKAA1 (human)): 84% | kinase still bound, per cent of control (BLK (human)): 86%

C=CC(=O)Nc1ccc(C(=O)c2sc(Nc3ccc(N4CCN(C)CC4)cc3OC)nc2N)cc1
kinase still bound, per cent of control (CAMK1G (human)): 8.2% | kinase still bound, per cent of control (NEK9 (human)): 100% | kinase still bound, per cent of control (AURKB (human)): 62% | kinase still bound, per cent of control (MAPK15 (human)): 75% | kinase still bound, per cent of control (EPHA4 (human)): 96% | kinase still bound, per cent of control (PAK6 (human)): 40% | kinase still bound, per cent of control (NEK6 (human)): 73% | kinase still bound, per cent of control (NUAK2 (human)): 49% | kinase still bound, per cent of control (FES (human)): 52% | kinase still bound, per cent of control (DDR2 (human)): 100% | kinase still bound, per cent of control (ICK (human)): 32% | kinase still bound, per cent of control (PIK3CD (human)): 100% | kinase still bound, per cent of control (NTRK3 (human)): 93% | kinase still bound, per cent of control (ERN1 (human)): 7.6% | kinase still bound, per cent of control (PAK1 (human)): 73% | kinase still bound, per cent of control (RPS6KA1 KD1 (human)): 24% | kinase still bound, per cent of control (MAP2K6 (human)): 96% | kinase still bound, per cent of control (MARK2 (human)): 78% | kinase still bound, per cent of control (MAP2K1 (human)): 100% | kinase still bound, per cent of control (CHUK (human)): 59% | kinase still bound, per cent of control (MAPK1 (human)): 100% | kinase still bound, per cent of control (FER (human)): 82% | kinase still bound, per cent of control (PRKX (human)): 99% | kinase still bound, per cent of control (STK3 (human)): 98% | kinase still bound, per cent of control (SGK3 (human)): 83% | kinase still bound, per cent of control (MAP2K2 (human)): 89% | kinase still bound, per cent of control (AKT2 (human)): 100% | kinase still bound, per cent of control (TRPM6 (human)): 35% | kinase still bound, per cent of control (BMPR1B (human)): 86% | kinase still bound, per cent of control (TNIK (human)): 6% | kinase still bound, per cent of control (DYRK1B (human)): 2.6% | kinase still bound, per cent of control [1]: 23% | kinase still bound, per cent of control (MAPK3 (human)): 100% | kinase still bound, per cent of control (CDC42BPA (human)): 100% | kinase still bound, per cent of control (TNK1 (human)): 22% | kinase still bound, per cent of control (CPK1 (P.falciparum)): 74% | kinase still bound, per cent of control (LATS2 (human)): 100% | kinase still bound, per cent of control (LIMK2 (human)): 100% | kinase still bound, per cent of control (ZAP70 (human)): 20% | kinase still bound, per cent of control (PRKAA1 (human)): 100% | kinase still bound, per cent of control (BLK (human)): 100%

CCN1CCN(Cc2ccc(NC(=O)c3ccc(C)c(/C=C/c4cnc5[nH]ccc5c4OC)c3)cc2C(F)(F)F)CC1
kinase still bound, per cent of control (CAMK1G (human)): 100% | kinase still bound, per cent of control (NEK9 (human)): 8.4% | kinase still bound, per cent of control (AURKB (human)): 16% | kinase still bound, per cent of control (MAPK15 (human)): 67% | kinase still bound, per cent of control (EPHA4 (human)): 0% | kinase still bound, per cent of control (PAK6 (human)): 54% | kinase still bound, per cent of control (NEK6 (human)): 100% | kinase still bound, per cent of control (NUAK2 (human)): 95% | kinase still bound, per cent of control (FES (human)): 0.2% | kinase still bound, per cent of control (DDR2 (human)): 9% | kinase still bound, per cent of control (ICK (human)): 99% | kinase still bound, per cent of control (PIK3CD (human)): 78% | kinase still bound, per cent of control (NTRK3 (human)): 0.95% | kinase still bound, per cent of control (ERN1 (human)): 72% | kinase still bound, per cent of control (PAK1 (human)): 100% | kinase still bound, per cent of control (RPS6KA1 KD1 (human)): 31% | kinase still bound, per cent of control (MAP2K6 (human)): 79% | kinase still bound, per cent of control (MARK2 (human)): 68% | kinase still bound, per cent of control (MAP2K1 (human)): 74% | kinase still bound, per cent of control (CHUK (human)): 0% | kinase still bound, per cent of control (MAPK1 (human)): 100% | kinase still bound, per cent of control (FER (human)): 27% | kinase still bound, per cent of control (PRKX (human)): 75% | kinase still bound, per cent of control (STK3 (human)): 5.2% | kinase still bound, per cent of control (SGK3 (human)): 38% | kinase still bound, per cent of control (MAP2K2 (human)): 58% | kinase still bound, per cent of control (AKT2 (human)): 48% | kinase still bound, per cent of control (TRPM6 (human)): 100% | kinase still bound, per cent of control (BMPR1B (human)): 14% | kinase still bound, per cent of control (TNIK (human)): 3.2% | kinase still bound, per cent of control (DYRK1B (human)): 27% | kinase still bound, per cent of control [1]: 2.8% | kinase still bound, per cent of control (MAPK3 (human)): 100% | kinase still bound, per cent of control (CDC42BPA (human)): 15% | kinase still bound, per cent of control (TNK1 (human)): 1.4% | kinase still bound, per cent of control (CPK1 (P.falciparum)): 0.2% | kinase still bound, per cent of control (LATS2 (human)): 79% | kinase still bound, per cent of control (LIMK2 (human)): 2.9% | kinase still bound, per cent of control (ZAP70 (human)): 52% | kinase still bound, per cent of control (PRKAA1 (human)): 20% | kinase still bound, per cent of control (BLK (human)): 0.15%
